Source: US20170112748A1, “N-ACYLPEPTIDE DERIVATIVES AND THEIR USES” (NeoStrata Company, Inc., priority 2012, published 2017)

Tests used:
Format in all cases: in vivo, human
[1] = topical treatment of plaque psoriasis, clinical evaluation; settings: Example 13: subject, 0.2% (w/w) in cream twice daily, 3 weeks
Excerpt: A subject, having plaque psoriasis, topically applied twice daily N-Ac-L-Tyr-L-Tyr-L-Tyr-NH2 0.2% (w/w) in cream to plaque lesions for 3 weeks. The treated lesions started to improve after a few days of topical application. […] The treated lesions had 40-50% improvement as judged by clinical evaluation.

[2] = skin plump / skin thickness test after topical application, caliper measurement
Protocol: In one of the studies related to skin changes associated with aging, skin thickness was measured by micrometer calipers as follows.
The skin was grasped with a 2×6 cm metal hinge: the internal faces of which were coated with emery cloth to prevent slippage, and manually squeezed to threshold subject discomfort. Combined thickness of two whole-skin layers including thickness of the two hinge leaves was measured with micrometer calipers. Thickness of the two hinge leaves was subtracted to determine the actual thickness of two whole-skin layers. Triplicate measurements on treated sites were done and an average number was used for calculation of the skin thickness.
In other studies, test sites of skin 17 mm in diameter were used, the circular sites were marked with permanent ink. Intervening control sites were also 17 mm in diameter. Thickness of skin of all sites was measured directly by means of an electronic digital caliper. In this instance the jaws of the caliper were opened to 17 mm, applied with pressure to the skin sites and then closed to firm tightness. Thickness of skin was then read off the screen of the calipers. Measurements of all sites were made in triplicates. […]

[3] = topical treatment of chronic inflammation, erythema, eczema with thick scales and itch, clinical evaluation; settings: Example 10: subject, -NH2 0.3% and -OEt 0.5% (w/v) in WEP442
Excerpt: The involved skin was divided into two lesions for testing. The subject topically applied twice daily to one lesion, N-Ac-L-Tyr-L-Tyr-L-Tyr-NH2 0.3% (w/v) in WEP442, pH 5.9 solution composition, prepared according to Example 2, and to second lesion, N-Ac-L-Tyr-L-Tyr-L-Tyr-OEt 0.5% (w/v) in WEP 442, pH 6.0, prepared according to Example 2. […] The treated skin had 90-95% improvement as judged by clinical evaluation.

[4] = summary of test results in volunteer subjects, efficacy grades; settings: efficacy grade
Excerpt: Subject 1. Person had multiple red and itchy inflammation, dermatitis, or eczema lesions, which were resistant to conventional treatments including corticosteroids. Subject 2. Person had small red and itchy lesions which were resistant to topical corticosteroid treatment. Subject 3. Person had multiple red and itchy inflammation, dermatitis, or eczema lesions over the body for many years, which were resistant to conventional treatments including corticosteroids. Subject 4. Person had red and itchy inflammation, dermatitis, or eczema lesions for many years, which were resistant to topical corticosteroid treatment. Subject 5. Person had early stage of aging related skin changes on both forearms as indicated by age spots and wrinkled skin caused by solar damage. Subject 6. Person had age spots, keratoses and wrinkles on both forearms caused by intrinsic and extrinsic aging. Subject 7. Person had age spots, and wrinkles on both forearms caused by intrinsic and extrinsic aging. Subject 8. Person had osteoarthritis of both knees with inflammation and pain for more than 4 years, and had only mild transitory relief from conventional treatments. Subject 9. Person had sensitive skin with inflammatory lesions on the body. Subject 12. Person had dermatitis and inflammatory lesions on the left palm. Subject 14. Person had multiple age spots including lentigines and keratosis on their face. Subject 15. Person had psorisis Subject 16. Person had sensitive skin and eczema for more than 40 years
In another embodiment, the volunteer subject topically applied the test compositions containing N-acylpeptide derivatives of the present invention on involved skin or lesions once or twice daily for several weeks or until the involved lesions completely cleared and clinically changed to normal skin. As a control study, the subject also topically applied a vehicle control composition on the involved skin or lesions twice daily for the same period.
In yet another embodiment, the volunteer subject topically applied once or twice daily the test compositions containing N-acylpeptide derivatives of the present invention on the skin site above arthritic joints or painful muscles to provide therapeutic effects for the systemic disorders via topical administration.
(§1) In yet another embodiment, the volunteer subject injected intra-articularly into a knee joint a test composition containing a N-acylpeptide derivative of the present invention to improve and reduce arthritic inflammation and pain of the joint.
Some test results are summarized as follows.
DK: Disturbed keratinization AG: Aging related changes of skin, nail and hair DI: Deranged immune disorders and inflammation ND: Nerve disorders CA: Tumors and/or cancers

[5] = appetite for food after topical application on forehead; settings: Example 12: subject, 0.3% (w/v) in WEP442 once on forehead one hour before dinner
Protocol: A subject, having normal and regular eating habit, topically applied once N-Ac-L-Tyr-L-Tyr-L-Tyr-NH2, 0.3% (w/v) in WEP442, pH 5.9 prepared according to Example 2 on their forehead one hour before the regular dinner time. After about 50-60 minutes of the topical application, the subject strated to feel loss of appetite for food.

[6] = topical treatment of bilateral inter-metacarpal atrophy of hands; settings: Example 23: subject, 1% (w/v) in WEP442 twice daily after the first course
Excerpt: A subject had bilateral inter-metacarpal atrophy of both hands with certain restrictions of hand movements. The subject topically applied two to three times daily N-Ac-L-Tyr-L-Tyr-L-Tyr-OEt, 2% (w/v) in EP73 on the back of their left hand, and vehicle control EP73 on the back of their right hand for three weeks.
The subject now, topically applied twice daily N-Ac-L-Tyr-L-Tyr-L-Tyr-NH2, 1% (w/v) in WEP442 on the back of their left hand as a mantenace therapy.

[7] = anxiety, stress and mood disorders after topical application on forehead; settings: Example 16: subject, 0.2% in WEP442 on forehead, after two hours
Excerpt: A subject had mild forms of anxiety, stress and mood disorders which provoked restlessness, lack of concentration, and mild depression. […] The subject then topically applied N-Ac-L-Val-L-Tyr-L-Tyr-NH2, 0.2% in WEP442 on their forehead.

[8] = skin thickness after intradermal injection on the forearms; settings: Example 15: subject, intradermal 0.05 ml (0.5 mg) of 1% in water, after 8 days
Protocol: In other studies, test sites of skin 17 mm in diameter were used, the circular sites were marked with permanent ink. Intervening control sites were also 17 mm in diameter. Thickness of skin of all sites was measured directly by means of an electronic digital caliper. In this instance the jaws of the caliper were opened to 17 mm, applied with pressure to the skin sites and then closed to firm tightness. Thickness of skin was then read off the screen of the calipers. Measurements of all sites were made in triplicates.
A typical systemic administration by intradermal injection was carried out as follows. A subject, injected intradermally on the forearms the following N-acylpeptide derivative of the present invention:
(a). N-Ac-L-Tyr-L-Tyr-L-Tyr-OH, 0.05 ml (0.5 mg) of 1% in water, after 8 days, there was 10-20% increase in skin thickness of 6 mm size skin at the injection site: effective for aging skin. (b). N-Ac-L-Ala-L-Leu-L-Lys-L-His-L-Arg-NH2 (SEQ ID NO: 51), 0.05 ml (0.5 mg) of 1% in water. (c). N-Bz-L-Ala-L-Leu-L-Lys-L-His-L-Arg-NH2 (SEQ ID NO: 65), 0.05 ml (0.5 mg) of 1% in water. (d). N-Ac-(EEASPEAVAGVGFESK)-NH2 (SEQ ID NO: 126), 0.1 ml (0.4 mg) of 0.4% in water.

[9] = knee osteoarthritis, intra-articular injections
Protocol: A subject had severe osteoarthritis of both knees for more than four years. Prior therapy had included intra-articular injections of corticosteroids and hyaluronic acid as well as celecoxib (Celebrex) orally (200 mg) twice daily. Such therapy had provided only mild transitory relief of knee pain and edema, and edema of lower legs.
Intra-articular injections of 1% (w/v) N-Ac-L-Tyr-L-Tyr-L-Tyr-OH in water, 0.1 ml (1 mg) as prepared in Example 4 were administered to each knee. The pains in both knees disappeared about 20-30 minutes after the injections, and the relief of pains lasted for 24 hours. Edema and inflammation of the knees and lower legs had diminished for approximately the same 24 hour period. Repeat injections of the same composition were administered once a week for several weeks to provide continued relief of pain, edema and inflammation.
In another trial, intra-articular injections of 0.2% (w/v) N-Ac-L-Tyr-L-Tyr-L-Tyr-OEt with 1% (w/v) methyl cellulose in water, 0.5 ml (1 mg) as prepared in Example 4 were also administered to each knee at different times. The pains in both knees disappeared about 20-30 minutes after the injections, and the relief of pains lasted for 24 hours. Edema and inflammation of the knees and lower legs had diminished for approximately the same 24 hour period.
A subject had osteoarthritis of both knees for more than four years. […] Intra-articular injections of each knee with N-Ac-L-Tyr-L-Tyr-L-Tyr-OH, 7-13 mg in aqueous solution had provided substantial relief of pain in the joints for 2-3 days.
as §1

[10] = urination (diuretic effect) after topical application on forehead; settings: Example 17: subject, 0.2% in WEP442 on forehead, about one hour later; repeated next day with same result
Excerpt: The subject then topically applied N-Ac-L-Tyr-L-Tyr-L-Tyr-OH, 0.2% in WEP442 on their forehead. […] The subject repeated the same procedure the next day, and obtained the same result.

[11] = Example 21: subject, sun damaged forearms, 1% (w/v) in WEP442 three times daily, one week
[12] = Example 18: subject, intra-articular 1 mg each knee

Substance	improvement of treated lesions as judged by clinical evaluation [1]	increase in skin thickness ([2]; Example 8: subject, severe photodamage, right wrist distal, 0.5% (w/v) in WEP721 three times daily, 7 days)	increased skin thickness ([2]; Example 20: subject, photoaging forearms, 0.8% (w/v) in WEP442 three times daily, four weeks) [%]	increased skin thickness ([2]; Example 20: subject, photoaging forearms, 1% (w/v) in WEP442 three times daily, four weeks) [%]	increased skin thickness [2, 11]	itch [3]	AG: Aging related changes of skin, nail and hair [4]	DI: Deranged immune disorders and inflammation [4]	DK: Disturbed keratinization [4]	ND: Nerve disorders [4]	amount of food eaten at dinner [5]	time after topical application until loss of appetite for food was felt [5] [min]	inter-metacarpal atrophy of left hand, maintenance therapy [6]	effect on anxiety, stress and mood disorders [7]	increase in skin thickness of 6 mm size skin at the injection site [8]	duration of relief of pains [9, 12] [h]	period of diminished edema and inflammation of the knees and lower legs [9, 12] [h]	time after injection until pains in both knees disappeared ([9]; Example 18: subject, intra-articular 1 mg each knee (-OH 1% in water 0.1 ml; -OEt 0.2% with 1% methyl cellulose 0.5 ml)) [min]	duration of substantial relief of pain in the joints ([9]; Example 25: subject, intra-articular 7-13 mg in aqueous solution each knee) [days]	urination [10]
N-Ac-L-Tyr-L-Tyr-L-Tyr-NH2	40-50%	5-10%	~15	~28	~24%	stopped within a few minutes	4+ (4+: 95-100% Efficacy)	4+ (4+: 95-100% Efficacy)	4+ (4+: 95-100% Efficacy)	4+ (4+: 95-100% Efficacy)	only half the amount of food they usually would consume	50 to 60	continued to improve with no signs of inter-metacarpal atrophy							
N-Ac-L-Val-L-Tyr-L-Tyr-NH2							3+ (3+: 75% Efficacy)	2+ (2+: 50% Efficacy)	2+ (2+: 50% Efficacy)	4+ (4+: 95-100% Efficacy)				anxiety, stress and mood disorders started to disappear						
N-Ac-L-Tyr-L-Tyr-L-Tyr-OH					approximately 29%		2+ (2+: 50% Efficacy)	3+ (3+: 75% Efficacy)	2+ (2+: 50% Efficacy)	3+ (3+: 75% Efficacy)					10-20%	24	~24	20 to 30	2 to 3	urge for urination
